In ChEMBL document CHEMBL1212718, “Persistent signaling induced by FTY720-phosphate is mediated by internalized S1P1 receptors” (Nat Chem Biol, 2009):
The source made the active and inactive calls.

Legend:
[1] = biological target: Sphingosine 1-phosphate receptor 1 (Homo sapiens) (UniProt P21453); conditions: CHO, 1 uM
Description: Agonist activity at human S1P1 receptor expressed in CHO cells assessed as inhibition of forskolin-stimulated cAMP formation at 1 uM after 20 mins

[2] = biological target: Sphingosine 1-phosphate receptor 1 (Homo sapiens) (UniProt P21453); conditions: CHO, 1 uM; remark: listed apart in the source
Description: Agonist activity at human S1P1 receptor expressed in CHO cells assessed as inhibition of forskolin-stimulated cAMP formation at 1 uM after 60 mins

[3] = biological target: Sphingosine 1-phosphate receptor 1 (Homo sapiens) (UniProt P21453); test: Induction of human S1P1 receptor internalization expressed in CHO cells pretreated at 1 uM for 1 hr measured after 5 hrs washout period; assay type: cell-based
[4] = biological target: Sphingosine 1-phosphate receptor 1 (Homo sapiens) (UniProt P21453); test: Agonist activity at human S1P1 receptor expressed in CHO cells assessed as inhibition of forskolin-stimulated cAMP formation pretreated at 1 uM for 1 hr measured after 5 hrs washout peroid; assay type: functional, cell-based
[5] = biological target: Sphingosine 1-phosphate receptor 1 (Homo sapiens) (UniProt P21453); test: Induction of human S1P1 receptor internalization expressed in CHO cells at 1 uM after 60 mins; assay type: cell-based

Sequence of Sphingosine 1-phosphate receptor 1 (Homo sapiens) (P21453 whole entry): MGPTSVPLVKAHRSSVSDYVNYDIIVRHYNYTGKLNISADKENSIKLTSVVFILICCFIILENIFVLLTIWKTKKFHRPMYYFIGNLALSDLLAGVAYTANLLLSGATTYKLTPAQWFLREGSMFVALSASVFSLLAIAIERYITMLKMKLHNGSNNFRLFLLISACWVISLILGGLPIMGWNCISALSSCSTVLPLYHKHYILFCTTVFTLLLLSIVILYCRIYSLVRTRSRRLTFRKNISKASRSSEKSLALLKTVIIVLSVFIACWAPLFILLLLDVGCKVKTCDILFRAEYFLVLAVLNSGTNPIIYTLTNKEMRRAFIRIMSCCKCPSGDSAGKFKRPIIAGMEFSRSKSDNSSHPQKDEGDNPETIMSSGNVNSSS

CCCCCCCCCCCCC/C=C/[C@@H](O)[C@@H](N)COP(=O)(O)O
active: inhibition [1] | inhibition [2] | Activity [3] | inhibition [4] | Activity [5]
